From ChEMBL document CHEMBL1681645, “Pyrrolo[1,2-f]triazines as JAK2 inhibitors: achieving potency and selectivity for JAK2 over JAK3” (Bioorg Med Chem Lett, 2011)

How the values were obtained:
[1] = Antiproliferative activity against human SET2 cells assessed as inhibition of [3H]thymidine incorporation after 72 hrs; assay type: functional, cell-based; details: SET-2
[2] = target: Tyrosine-protein kinase JAK2 (Homo sapiens, UniProt O60674); test: Inhibition of JAK2 after 60 mins
[3] = Selectivity ratio of IC50 for JAK3 over IC50 for JAK2
[4] = Selectivity ratio of IC50 for JAK1 over IC50 for JAK2
[5] = target: T1, Tyrosine-protein kinase JAK3 (Homo sapiens, UniProt P52333); test: Inhibition of JAK3 after 60 mins
T1 sequence (P52333 whole entry): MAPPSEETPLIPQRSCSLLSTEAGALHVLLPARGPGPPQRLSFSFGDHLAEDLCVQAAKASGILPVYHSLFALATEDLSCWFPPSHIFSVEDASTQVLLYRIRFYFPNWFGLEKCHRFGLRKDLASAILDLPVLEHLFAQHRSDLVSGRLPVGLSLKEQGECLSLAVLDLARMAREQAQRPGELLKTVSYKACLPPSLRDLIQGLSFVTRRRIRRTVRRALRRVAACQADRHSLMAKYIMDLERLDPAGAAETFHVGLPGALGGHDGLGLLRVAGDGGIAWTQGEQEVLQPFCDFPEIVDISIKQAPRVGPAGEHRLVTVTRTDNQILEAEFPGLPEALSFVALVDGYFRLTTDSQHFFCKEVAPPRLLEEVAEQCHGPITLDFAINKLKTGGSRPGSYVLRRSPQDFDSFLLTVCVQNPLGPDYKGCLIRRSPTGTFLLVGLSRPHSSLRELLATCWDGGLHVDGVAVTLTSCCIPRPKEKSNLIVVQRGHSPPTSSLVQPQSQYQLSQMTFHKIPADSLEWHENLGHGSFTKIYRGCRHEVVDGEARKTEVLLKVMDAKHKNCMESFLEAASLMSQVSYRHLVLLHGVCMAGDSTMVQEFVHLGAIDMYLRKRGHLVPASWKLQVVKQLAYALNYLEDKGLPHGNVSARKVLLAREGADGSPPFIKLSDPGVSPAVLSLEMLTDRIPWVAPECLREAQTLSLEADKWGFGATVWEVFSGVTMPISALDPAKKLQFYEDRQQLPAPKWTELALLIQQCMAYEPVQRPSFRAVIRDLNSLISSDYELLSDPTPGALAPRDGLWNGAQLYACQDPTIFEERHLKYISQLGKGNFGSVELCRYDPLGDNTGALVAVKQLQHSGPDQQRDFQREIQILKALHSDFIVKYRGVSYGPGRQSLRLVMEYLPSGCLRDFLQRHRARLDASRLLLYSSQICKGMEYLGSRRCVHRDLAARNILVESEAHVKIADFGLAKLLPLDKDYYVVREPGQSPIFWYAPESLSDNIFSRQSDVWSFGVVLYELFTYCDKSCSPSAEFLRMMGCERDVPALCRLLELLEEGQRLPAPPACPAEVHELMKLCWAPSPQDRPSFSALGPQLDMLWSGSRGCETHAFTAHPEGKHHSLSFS

Sequence of Tyrosine-protein kinase JAK2 (O60674 whole entry): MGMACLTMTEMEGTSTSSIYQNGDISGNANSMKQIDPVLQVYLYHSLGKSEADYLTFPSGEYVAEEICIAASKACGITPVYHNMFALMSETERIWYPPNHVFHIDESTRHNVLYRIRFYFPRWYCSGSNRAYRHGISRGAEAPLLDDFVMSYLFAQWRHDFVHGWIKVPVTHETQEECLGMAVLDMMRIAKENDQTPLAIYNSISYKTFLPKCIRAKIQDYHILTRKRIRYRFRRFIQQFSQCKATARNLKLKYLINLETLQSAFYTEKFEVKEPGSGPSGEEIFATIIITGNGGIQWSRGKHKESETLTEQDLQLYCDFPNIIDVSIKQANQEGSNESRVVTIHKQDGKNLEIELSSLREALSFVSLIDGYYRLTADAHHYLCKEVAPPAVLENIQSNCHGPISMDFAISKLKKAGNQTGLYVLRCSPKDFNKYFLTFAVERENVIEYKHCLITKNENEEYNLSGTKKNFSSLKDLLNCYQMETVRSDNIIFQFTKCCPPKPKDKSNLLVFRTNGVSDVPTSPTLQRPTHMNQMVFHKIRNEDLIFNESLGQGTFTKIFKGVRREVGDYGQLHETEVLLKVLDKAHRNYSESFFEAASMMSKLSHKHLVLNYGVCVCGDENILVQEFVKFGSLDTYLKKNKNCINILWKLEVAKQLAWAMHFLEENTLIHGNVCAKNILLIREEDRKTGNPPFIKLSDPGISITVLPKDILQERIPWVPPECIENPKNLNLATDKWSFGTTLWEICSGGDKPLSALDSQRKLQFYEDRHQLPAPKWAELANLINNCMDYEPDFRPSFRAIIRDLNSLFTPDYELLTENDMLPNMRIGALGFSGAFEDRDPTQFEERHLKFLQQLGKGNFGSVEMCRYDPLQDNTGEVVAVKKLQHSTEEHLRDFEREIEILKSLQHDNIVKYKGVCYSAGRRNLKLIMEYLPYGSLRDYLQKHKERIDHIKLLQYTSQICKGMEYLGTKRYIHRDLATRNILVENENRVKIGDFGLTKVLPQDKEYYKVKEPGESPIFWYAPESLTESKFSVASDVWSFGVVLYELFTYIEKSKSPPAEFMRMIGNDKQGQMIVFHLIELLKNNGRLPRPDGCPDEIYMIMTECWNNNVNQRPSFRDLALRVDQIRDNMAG

Compound	IC50 [2] [nM]	Ratio IC50 [3]	Ratio IC50 [4]	IC50 [5] [nM]	IC50 [1] [nM]
Cc1cc(Nc2nc(N3CCN(C(=O)c4ccccc4C#N)CC3)nn3cccc23)n[nH]1	6				140
CCC(=O)N1CCN(c2nc(Nc3cc(C)[nH]n3)c3cccn3n2)CC1	22	5			
Cc1cc(Nc2nc(N3CCN(C(=O)N(C)C)CC3)nn3cccc23)n[nH]1		11	5		
CC1(c2cc(Nc3nc(N4CCN(C(=O)Cc5ccccc5)CC4)nn4cccc34)n[nH]2)CC1	22				980
Cc1cc(Nc2nc(N3CCN(C(=O)c4ccccc4Cl)CC3)nn3cccc23)n[nH]1	7.3				71
CC(C)n1cnc(Nc2nc(N3CCN(C(=O)Cc4ccccc4)CC3)nn3cccc23)c1	110				670
O=C(Cc1ccccc1)N1CCN(c2nc(Nc3nccs3)c3cccn3n2)CC1	59	37	2.6		1200
O=C(NC1CC1)c1cc(Nc2nc(N3CCN(C(=O)Cc4ccccc4)CC3)nn3cccc23)n[nH]1	2700				1400
Cc1cc(Nc2nc(N3CCN(C(=O)N(C)C)CC3)nn3cccc23)[nH]n1	9.3				
O=C(Cc1ccccc1)N1CCN(c2nc(Nc3ccccn3)c3cccn3n2)CC1	190	41	11		
COc1cc(F)c(CC(=O)N2CCN(c3nc(Nc4cc(C)n[nH]4)c4cccn4n3)CC2)c(F)c1					110
Cc1nnc(Nc2nc(N3CCN(C(=O)Cc4ccccc4)CC3)nn3cccc23)s1	14000	1.3		18000	690
Cc1cc(Nc2nc(N3CCNCC3)nn3cccc23)n[nH]1		15	16		

More lines, in order of falling IC50 [2], values ahead:

IC50 [2] [nM]	Ratio IC50 [3]	Ratio IC50 [4]	IC50 [5] [nM]	Compound	IC50 [1] [nM]
5.3				Cc1cc(Nc2nc(N3CCN(C(=O)Cc4ccccc4C)CC3)nn3cccc23)n[nH]1	120
4.8				Cc1cc(Nc2nc(N3CCN(C(=O)c4ccc(C#N)cc4)CC3)nn3cccc23)n[nH]1	6.2
4.6				Cc1cc(Nc2nc(N3CCN(C(=O)Cc4ccccc4F)CC3)nn3cccc23)n[nH]1	170
4.5				Cc1ccc(C(=O)N2CCN(c3nc(Nc4cc(C)[nH]n4)c4cccn4n3)CC2)cc1	59
3.5				COc1ccccc1C(=O)N1CCN(c2nc(Nc3cc(C)[nH]n3)c3cccn3n2)CC1	90
3				Cc1cc(Nc2nc(N3CCN(C(=O)c4ccccc4C)CC3)nn3cccc23)n[nH]1	160
2.8				Cc1cc(Nc2nc(N3CCN(C(=O)Cc4ccccc4)CC3)nn3cccc23)n[nH]1	370
2.4				Cc1cc(Nc2nc(N3CCN(C(=O)Cc4ccc(F)cc4F)CC3)nn3cccc23)n[nH]1	54
2.2				Cc1cc(Nc2nc(N3CCN(C(=O)c4ccccc4)CC3)nn3cccc23)n[nH]1	62
2.1				Cc1cc(Nc2nc(N3CCN(C(=O)c4ccccc4Br)CC3)nn3cccc23)n[nH]1	180
2				Cc1cc(Nc2nc(N3CCN(C(=O)CCc4ccccc4)CC3)nn3cccc23)n[nH]1	76
1.2				COc1ccc(CC(=O)N2CCN(c3nc(Nc4cc(C)[nH]n4)c4cccn4n3)CC2)cc1	630
1.1				Cc1ccc(CC(=O)N2CCN(c3nc(Nc4cc(C)[nH]n4)c4cccn4n3)CC2)cc1	310
1.1				Cc1cc(Nc2nc(N3CCN(C(=O)c4ccccc4S(C)(=O)=O)CC3)nn3cccc23)n[nH]1	190
1	67	3.8		Cc1cc(Nc2nc(N3CCN(C(=O)Cc4c(F)cc(Cl)cc4F)CC3)nn3cccc23)n[nH]1	80
0.9	25	6.5		Cc1cc(Nc2nc(N3CCN(C(=O)Cc4ccc(F)cc4)CC3)nn3cccc23)n[nH]1	54
0.6				Cc1cc(Nc2nc(N3CCN(C(=O)Cc4ccc(Cl)cc4)CC3)nn3cccc23)n[nH]1	590
